In general, IC50 refers to the point on the concentration scale where inhibition reaches its midpoint. Lower therefore signals higher potency.

Data set [1] addresses Lysine-specific histone demethylase 1A (Homo sapiens, UniProt O60341).
Description: Inhibition of recombinant LSD1 (157 to 852) (unknown origin) transfected in Escherichia coli BL21(DE) by fluorescence assay
Data set [2] has as its system Mus musculus. Nature of the data set: Downregulation of Bcl2 expression in nude BALB/C mouse xenografted with human MGC803 cells at 50 to 100 mg/kg, po administered for 21 days. The class given is functional, organism-based. The note with it: MGC-803.
In data set [3] the target is T1, Amine oxidase [flavin-containing] A (Homo sapiens, UniProt P21397).
T1 sequence (P21397 whole entry): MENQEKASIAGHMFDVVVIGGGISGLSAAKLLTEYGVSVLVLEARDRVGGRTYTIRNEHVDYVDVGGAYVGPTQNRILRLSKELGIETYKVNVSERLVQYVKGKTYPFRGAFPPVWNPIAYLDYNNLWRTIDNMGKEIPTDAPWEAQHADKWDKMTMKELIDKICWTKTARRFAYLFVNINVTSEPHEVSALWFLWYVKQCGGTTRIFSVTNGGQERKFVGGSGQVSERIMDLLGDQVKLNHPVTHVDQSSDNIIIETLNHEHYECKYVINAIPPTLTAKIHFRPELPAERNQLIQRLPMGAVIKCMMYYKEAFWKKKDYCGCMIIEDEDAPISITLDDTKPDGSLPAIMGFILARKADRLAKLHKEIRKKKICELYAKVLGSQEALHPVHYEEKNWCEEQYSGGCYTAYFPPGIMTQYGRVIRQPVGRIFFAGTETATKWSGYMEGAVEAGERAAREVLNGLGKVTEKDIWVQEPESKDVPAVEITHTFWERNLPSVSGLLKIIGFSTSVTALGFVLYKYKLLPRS
Description: Inhibition of MAOA (unknown origin)

Data set [4] has as its system MGC-803. Nature of the data set: Antiinvasive activity against human MGC803 cells at >5 uM after 48 hrs by matrigel-coated transwell assay. The class given is functional, cell-based.
The nature of data set [5]: Antimetastatic activity in mouse B16F10 cells […] in C57BL/6 mouse assessed as lung metastatic nodule at 50 mg/kg, po administered for 14 days (reference value: 26.6 +/- 8.7). The class given is functional, B16-F10.
For data set [6], the system named is MGC-803. Nature of the data set: cells. The note with it: Homo sapiens, MGC-803, 72 h.
Description: Cytotoxicity against human MGC803 cells after 72 hrs by MTT assay
Data set [7] deals with MGC-803. Nature of the data set: Induction of apoptosis in human MGC803 cells assessed as chromatin shrinkage at 2 to 8 uM after 24 hrs by Hoechst 33258 staining-based fluorescence microscopy. In kind it is functional, cell-based.
Data set [8] relates to MGC-803. The experiment in a line: Induction of apoptosis in human MGC803 cells assessed as formation of apoptotic bodies after 48 hrs by annexinV-FITC/propidium iodide staining-based flow cytometry. In kind it is functional, cell-based.
Data set [9] has as its system MGC-803. Particulars: Homo sapiens, 1.25 to 5 uM.
Description: Inhibition of epithelial-mesenchymal transition in human MGC803 cells assessed as down regulation of N-Cadherin at 1.25 to 5 uM after 48 hrs by Western blotting analysis
The test system of data set [10] is MGC-803. The experiment in a line: Induction of apoptosis in human MGC803 cells assessed as formation of apoptotic bodies at 2 to 8 uM after 24 hrs by Hoechst 33258 staining-based fluorescence microscopy. The class given is functional, cell-based.
In data set [11] the test system is MGC-803. The experiment in a line: Antiinvasive activity against human MGC803 cells at 1.25 to 5 uM after 48 hrs by wound healing assay. In kind it is functional, cell-based.
Data set [12] is described as follows: cells. The note with it: Homo sapiens, GES1, 72 h.
Description: Cytotoxicity against human GES-1 cells after 72 hrs by MTT assay
Data set [13] relates to Mus musculus. Nature of the data set: Upregulation of Bax expression in nude BALB/C mouse xenografted with human MGC803 cells at 50 to 100 mg/kg, po administered for 21 days. In kind it is functional, organism-based. The note with it: MGC-803. A general note: Xenograft models place foreign cells or tissue in a host animal.
Data set [14] is described as follows: cells. Particulars: Homo sapiens, SGC-7901, 72 h.
Description: Cytotoxicity against human SGC7901 cells after 72 hrs by MTT assay
Data set [15] has as its target T2, Amine oxidase [flavin-containing] B (Homo sapiens, UniProt P27338).
T2 sequence (P27338 whole entry): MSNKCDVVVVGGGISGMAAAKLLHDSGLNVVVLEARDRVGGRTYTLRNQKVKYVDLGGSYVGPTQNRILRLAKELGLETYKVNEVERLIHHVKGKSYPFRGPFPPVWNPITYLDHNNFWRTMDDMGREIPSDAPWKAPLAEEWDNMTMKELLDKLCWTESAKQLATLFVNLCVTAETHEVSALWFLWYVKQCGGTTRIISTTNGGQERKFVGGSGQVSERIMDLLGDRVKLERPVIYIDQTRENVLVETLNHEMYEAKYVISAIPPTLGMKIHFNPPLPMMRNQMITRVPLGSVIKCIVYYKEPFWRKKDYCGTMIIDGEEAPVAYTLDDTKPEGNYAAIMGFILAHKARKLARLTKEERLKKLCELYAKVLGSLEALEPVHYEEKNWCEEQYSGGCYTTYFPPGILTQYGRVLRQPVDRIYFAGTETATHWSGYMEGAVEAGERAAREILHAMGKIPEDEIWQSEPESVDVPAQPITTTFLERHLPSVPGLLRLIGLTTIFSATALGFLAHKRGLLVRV
Description: Inhibition of MAOB (unknown origin)

For data set [16], the system named is MGC-803. The experiment in a line: animal or person. The note with it: Mus musculus, MGC-803, po, 504 h, read-out: TGI.
Description: Antitumor activity against human MGC803 cells xenografted in nude BALB/C mouse assessed as reduction of tumor weight at 50 mg/kg, po administered for 21 days relative to vehicle-treated control
The test system of data set [17] is MGC-803. The experiment in a line: animal or person. Particulars: Mus musculus, MGC-803, po, 504 h, read-out: TGI. This is another data set of the same source.
Description: Antitumor activity against human MGC803 cells xenografted in nude BALB/C mouse assessed as reduction of tumor weight at 100 mg/kg, po administered for 21 days relative to vehicle-treated control
In data set [18] the test system is MGC-803. Nature of the data set: Induction of apoptosis in human MGC803 cells assessed as crescent nuclei at 2 to 8 uM after 24 hrs by Hoechst 33258 staining-based fluorescence microscopy. In kind it is functional, cell-based.
The nature of data set [19]: Antimetastatic activity in mouse B16F10 cells […] in C57BL/6 mouse assessed as lung metastatic nodule at 100 mg/kg, po administered for 14 days (reference value: 26.6 +/- 8.7). In kind it is functional, B16-F10.
A short description of data set [20]: cells. Particulars: Homo sapiens, HGC-27, 72 h.
Description: Cytotoxicity against human HGC27 cells after 72 hrs by MTT assay
The subject of data set [21] is MGC-803. The experiment in a line: Induction of apoptosis in human MGC803 cells assessed as down regulation of Bcl2 expression after 48 hrs by Western blotting analysis. The class given is functional, cell-based. In general terms: A western blot detects proteins with antibodies after separation by electrophoresis.
Data set [22] has as its system MGC-803. The experiment in a line: Antimigratory activity against human MGC803 cells at >5 uM after 48 hrs by transwell assay. The class given is functional, cell-based.
Data set [23] has as its system Mus musculus. The experiment in a line: Toxicity in nude BALB/C mouse xenografted with human MGC803 cells assessed as weight loss at 50 to 100 mg/kg, po. In kind it is organism-based, MGC-803. More on the design: dose 50-100 mg/kg, route oral. Particulars: in vivo.
Data set [24] can be described thus: Induction of apoptosis in human MGC803 cells assessed as upregulation of Bax expression after 48 hrs by Western blotting analysis. In kind it is functional, cell-based. Particulars: MGC-803.

The source made the active and inactive calls. The rule behind the calls is not given here. Bounds are passed on as bounds.

As to `C#CCSc1nc(Nc2ccc(C)cc2)c(C#N)c(-c2ccccc2)n1`, the IC50 in data set [1] is greater than 125 µM.

For `N#Cc1c(Cl)nc(SCc2cn(Cc3ccccc3Cl)nn2)nc1-c1ccc(Cl)cc1`, the IC50 in data set [1] is greater than 125 µM.

Regarding `C#CCSc1nc(Nc2ccc(F)cc2)c(C#N)c(-c2ccccc2)n1`, the IC50 in data set [1] is greater than 125 µM.

In the case of `C#CCSc1nc(Nc2cccc(C(F)(F)F)c2)c(C#N)c(-c2cc(OC)c(OC)c(OC)c2)n1`, in [1], the IC50 was greater than 125 µM.

In data set [1], `C#CCSc1nc(Nc2ccc(Cl)cc2)c(C#N)c(-c2ccc(Br)cc2)n1` displayed an IC50 greater than 125 µM.

Turning to `C#CCSc1nc(Nc2ccc(OC)cc2)c(C#N)c(-c2ccc(Cl)cc2)n1`, in data set [1], the IC50 was greater than 125 µM.

With `C#CCSc1nc(NNC(N)=S)c(C#N)c(-c2cc(OC)c(OC)c(OC)c2)n1`, the result in the data set on Mus musculus [2], with MGC-803 [4], with MGC-803 [7], in the data set on MGC-803 [10], in the data set on MGC-803 [11] and with Mus musculus [13] was Active. The outcome in the data set with MGC-803 [18] and in the data set with MGC-803 [22] was Active. For the same compound, the IC50 in [3] was greater than 1.25 mM; in the data set on MGC-803 [6], 4.01 µM; in the data set “cells [12]”, 58.9 µM; in “cells [14]”, 67.5 µM; in data set [15] it was greater than 1.25 mM; in the data set “cells [20]”, 8.92 µM. In addition, the Activity in data set [5] was 12.1; in the data set with MGC-803 [8] it was “Dose-dependent effect”; in data set [19], 8.4; with MGC-803 [21], “Dose-dependent effect”; with Mus musculus [23] it was “Non-toxic”; in data set [24], “Dose-dependent effect”. For the same compound, the inhibition entry with MGC-803 [9] is “Active”. In addition, the inhibition in vivo at 50 mg/kg in the data set on MGC-803 [16] was 55.1%. Further, in the data set on MGC-803 [17], the inhibition in vivo at 100 mg/kg is 72.1%.

For `C#CCSc1nc(Nc2ccccc2Cl)c(C#N)c(-c2ccccc2)n1`, in [1], the IC50 is greater than 125 µM.

On to `C#CCSc1nc(NNC(=N)N)c(C#N)c(-c2ccc([N+](=O)[O-])cc2)n1`, for which the IC50 in [1] was greater than 125 µM.

For `C#CCSc1nc(Nc2ccc(OC)cc2)c(C#N)c(-c2ccccc2)n1`, the IC50 in data set [1] was greater than 125 µM.

Compound `COc1cc(-c2nc(SCc3ccc(F)cc3)nc(NNC(N)=S)c2C#N)cc(OC)c1OC` came in with an IC50 in data set [1] greater than 125 µM.

Turning to `C#CCSc1nc(Cl)c(C#N)c(-c2cccc(Cl)c2)n1`, the IC50 in [1] is greater than 125 µM.

In the case of `C#CCSc1nc(Nc2cccc(C(F)(F)F)c2)c(C#N)c(-c2ccccc2)n1`, in data set [1], the IC50 is greater than 125 µM.

Turning to `C#CCSc1nc(Nc2ccc([N+](=O)[O-])cc2)c(C#N)c(-c2ccccc2)n1`, the IC50 in [1] was greater than 125 µM.

`C#CCSc1nc(Nc2cccc(Cl)c2)c(C#N)c(-c2ccccc2)n1` yielded an IC50 in data set [1] greater than 125 µM.

In turn, `C#CCSc1nc(Nc2cccc(C(F)(F)F)c2)c(C#N)c(-c2ccc(Cl)cc2)n1` returned an IC50 in data set [1] greater than 125 µM.

For `C#CCSc1nc(Nc2ccc(OC)cc2)c(C#N)c(-c2cc(OC)c(OC)c(OC)c2)n1`, in [1], the IC50 was greater than 125 µM.

`C#CCSc1nc(Nc2ccc(Cl)cc2)c(C#N)c(-c2ccccc2)n1` registered an IC50 in data set [1] greater than 125 µM.

Turning to `C#CCSc1nc(Cl)c(C#N)c(-c2ccc([N+](=O)[O-])cc2)n1`, the IC50 in data set [1] is greater than 125 µM.

The values above are taken from ChEMBL document CHEMBL3414475, “Design, synthesis, and structure-activity relationship of novel LSD1 inhibitors based on pyrimidine-thiourea hybrids as potent, orally active antitumor agents” (J Med Chem, 2015).
